In brackets after ≈: the same amount, converted by molar mass. Read-outs that look alike come from different tables or passages of the source.
Tests used:
[1] = test system: Staphylococcus pyogenes S-23; assay: Infectious disease curing effect by oral administration in infected mice; format: in vivo, ICR male mice; conditions: Staphylococcus aureus
Description: A pre-incubated test microorganism, Staphylococcus pyogenes S-23, was suspended in a 5% mucin solution and inoculated into the ICR male mice (8 mice per group) abdomen in an amount of 2×10^2. After 1 hour, Compounds (I) of the present invention dissolved or suspended in a phosphate buffer were orally administered to the mice. The mice were inspected for 5 days to determine ED50 (mg/kg) by the Van der Waerden method.

[2] = test system: Staphylococcus pyogenes 1022; assay: Antimicrobial activity (minimum inhibitory concentration); format: cell-based; conditions: Staphylococcus pyogenes 1022, about 10^6 /ml
Description: (§1) Minimum inhibitory concentrations (MIC, μg/ml) of various compounds of formula (I) against various microorganisms (about 10^6 /ml) were measured.

[3] = test system: Staphylococcus aureus MS 353; assay: as above; format: cell-based; conditions: MS353; Staphylococcus aureus MS 353, about 10^6 /ml
Description: as §1

[4] = test system: Staphylococcus pyogenes N.Y.5; assay: as above; format: cell-based; conditions: Staphylococcus pyogenes N.Y.5, about 10^6 /ml
Description: as §1

[5] = test system: Staphylococcus aureus FDA 209P JC-1; assay: as above; format: cell-based; conditions: FDA209P; Staphylococcus aureus FDA 209P JC-1, about 10^6 /ml
Description: as §1

[6] = test system: Staphylococcus pyogenes S-23; assay: as above; format: cell-based; conditions: Staphylococcus aureus, S23; Staphylococcus pyogenes S-23, about 10^6 /ml
Description: as §1

[7] = test system: Staphylococcus aureus MS 353 C36; assay: as above; format: cell-based; conditions: MS353C36; Staphylococcus aureus MS 353 C36, about 10^6 /ml
Description: as §1

[8] = test system: Staphylococcus aureus Smith; assay: as above; format: cell-based; conditions: about 10^6 /ml
Description: as §1

[9] = test system: Staphylococcus epidermidis sp-al-1; assay: as above; format: cell-based; conditions: SPAL1; Staphylococcus epidermidis sp-al-1, about 10^6 /ml
Description: as §1

[10] = S23, 120 h, oral, 1 hour after abdominal inoculation of Staphylococcus pyogenes S-23, inspected for 5 days, Van der Waerden method, read-out: ED50

SMILES	ED50 ([1]; S23, po, 120 h) [mg/kg]	MIC [2] [µg/mL]	MIC [3] [µg/mL]	MIC [4] [µg/mL]	MIC [5] [µg/mL]	MIC [6] [µg/mL]	MIC [7] [µg/mL]	MIC [8] [µg/mL]	MIC [9] [µg/mL]	ED50 [1, 10] [mg/kg]
CC[C@H]1OC(=O)C[C@@H](O)[C@H](C)[C@@H](O[C@@H]2O[C@H](C)[C@@H](O[C@H]3C[C@@](C)(O)[C@@H](O)[C@H](C)O3)[C@H](N(C)C)[C@H]2O)[C@@H](CC=O)C[C@@H](C)C(=O)/C=C/C(C)=C/[C@@H]1CO[C@@H]1O[C@H](C)[C@@H](O)[C@@H](OC)[C@H]1OC [Tylosin, reference compound]	> 200	–	–	–	–	–	–	–	–	–
CCC1OC(=O)CC(O)C(C)C(OC2OC(C)CC(N(C)C)C2O)C(CC=O)CC(C)C(OC)C=CC(C)=CC1CN(C)C (stereo not drawn) [Compound 7, 9-dihydro-9-O-methyl-23-demycinosyloxy-23-dimethylamino-4'-deoxydesmycosin]	–	> 100	0.2 (≈ 0.32 µM)	0.2 (≈ 0.32 µM)	0.2 (≈ 0.32 µM)	0.2 (≈ 0.32 µM)	0.2 (≈ 0.32 µM)	0.78 (≈ 1.25 µM)	0.2 (≈ 0.32 µM)	100 to 200
CCOC1C=CC(C)=CC(COC2OC(C)C(O)C(OC)C2OC)C(CC)OC(=O)CC(OC(C)=O)C(C)C(OC2OC(C)C(O)C(N(C)C)C2O)C(CC=O)CC1C (stereo not drawn) [Compound 8, 9-dihydro-9-O-ethyl-3-O-acetyldesmycosin]	–	> 100	0.39 (≈ 0.462 µM)	0.1 (≈ 0.118 µM)	0.2 (≈ 0.237 µM)	0.1 (≈ 0.118 µM)	0.39 (≈ 0.462 µM)	0.78 (≈ 0.924 µM)	0.39 (≈ 0.462 µM)	50
CCC1OC(=O)CC(O)C(C)C(OC2OC(C)C(O)C(N(C)C)C2O)C(CC=O)CC(C)C(OCC2CCC2)C=CC(C)=CC1COC1OC(C)C(O)C(OC)C1OC (stereo not drawn) [Compound 15, 9-dihydro-9-O-cyclobutylmethyldesmycosin]	–	50 (≈ 59.4 µM)	0.39 (≈ 0.463 µM)	≤ 0.05	0.39 (≈ 0.463 µM)	0.2 (≈ 0.238 µM)	0.39 (≈ 0.463 µM)	0.78 (≈ 0.926 µM)	0.78 (≈ 0.926 µM)	–
CCOC1C=CC(C)=CC(COC2OC(C)C(O)C(OC)C2OC)C(CC)OC(=O)CC(OC(=O)CC)C(C)C(OC2OC(C)C(O)C(N(C)C)C2O)C(CC=O)CC1C (stereo not drawn) [Compound 10, 9-dihydro-9-O-ethyl-3-O-propionyldesmycosin]	–	> 100	0.39 (≈ 0.455 µM)	0.1 (≈ 0.117 µM)	0.2 (≈ 0.233 µM)	0.39 (≈ 0.455 µM)	0.39 (≈ 0.455 µM)	0.78 (≈ 0.909 µM)	0.78 (≈ 0.909 µM)	–
CCC(=O)OC1CC(=O)OC(CC)C(COC2OC(C)C(O)C(OC)C2OC)C=C(C)C=CC(OC)C(C)CC(CC=O)C(OC2OC(C)C(O)C(N(C)C)C2O)C1C (stereo not drawn) [Compound 5, 9-dihydro-9-O-methyl-3-O-propionyldesmycosin]	–	50 (≈ 59.2 µM)	0.2 (≈ 0.237 µM)	0.05 (≈ 0.0592 µM)	0.1 (≈ 0.118 µM)	0.1 (≈ 0.118 µM)	0.2 (≈ 0.237 µM)	0.39 (≈ 0.462 µM)	0.2 (≈ 0.237 µM)	84
CCC1OC(=O)CC(OC(C)=O)C(C)C(OC2OC(C)CC(N(C)C)C2O)C(CC=O)CC(C)C(OC)C=CC(C)=CC1COC1OC(C)C(O)C(OC)C1OC (stereo not drawn) [Compound 13, 9-dihydro-9-O-methyl-3-O-acetyl-4'-deoxydesmycosin]	–	> 100	0.2 (≈ 0.246 µM)	0.1 (≈ 0.123 µM)	0.2 (≈ 0.246 µM)	0.1 (≈ 0.123 µM)	0.2 (≈ 0.246 µM)	0.39 (≈ 0.479 µM)	0.39 (≈ 0.479 µM)	–
CCCOC1C=CC(C)=CC(COC2OC(C)C(O)C(OC)C2OC)C(CC)OC(=O)CC(OC(C)=O)C(C)C(OC2OC(C)C(O)C(N(C)C)C2O)C(CC=O)CC1C (stereo not drawn) [Compound 9, 9-dihydro-9--O-propyl-3-O-acetyldesmycosin]	–	> 100	0.39 (≈ 0.455 µM)	0.2 (≈ 0.233 µM)	0.39 (≈ 0.455 µM)	0.2 (≈ 0.233 µM)	0.78 (≈ 0.909 µM)	0.78 (≈ 0.909 µM)	0.78 (≈ 0.909 µM)	–
CCCCOC1C=CC(C)=CC(COC2OC(C)C(O)C(OC)C2OC)C(CC)OC(=O)CC(O)C(C)C(OC2OC(C)C(O)C(N(C)C)C2O)C(CC=O)CC1C (stereo not drawn) [Compound 4, 9-dihydro-9-O-butyldesmycosin]	–	> 100	0.39 (≈ 0.47 µM)	0.1 (≈ 0.12 µM)	0.39 (≈ 0.47 µM)	0.2 (≈ 0.241 µM)	0.39 (≈ 0.47 µM)	0.78 (≈ 0.94 µM)	0.39 (≈ 0.47 µM)	–
CCC1OC(=O)CC(O)C(C)C(OC2OC(C)C(O)C(N(C)C)C2O)C(CC=O)CC(C)C(OCc2ccccc2)C=CC(C)=CC1COC1OC(C)C(O)C(OC)C1OC (stereo not drawn) [Compound 18, 9-dihydro-9-O-benzyldesmycosin]	–	100 (≈ 116 µM)	0.2 (≈ 0.231 µM)	0.1 (≈ 0.116 µM)	0.2 (≈ 0.231 µM)	0.1 (≈ 0.116 µM)	0.2 (≈ 0.231 µM)	0.39 (≈ 0.451 µM)	0.39 (≈ 0.451 µM)	–
CCOC1C=CC(C)=CC(COC2OC(C)C(O)C(OC)C2OC)C(CC)OC(=O)CC(O)C(C)C(OC2OC(C)C(O)C(N(C)C)C2O)C(CC=O)CC1C (stereo not drawn) [Compound 2, 9-dihydro-9-O-ethyldesmycosin]	–	> 100	0.2 (≈ 0.249 µM)	≤ 0.05	0.1 (≈ 0.125 µM)	≤ 0.05	0.1 (≈ 0.125 µM)	0.2 (≈ 0.249 µM)	0.1 (≈ 0.125 µM)	–
